Measurements taken from PMC11024795 (GeoHealth, 2024).
Like-named read-outs stand apart in the source and are kept apart here.

Key:
[1] = target: hNLRP3 LRR recombinant protein (Homo sapiens, UniProt Q96P20); assay: Surface plasmon resonance; assay type: binding; conditions: for kon: read-out: association constant k a
BV2 cells [2] = assay: CCK-8 cell viability assay; assay type: cell-based; conditions: CCK-8, 125-1,000 μM, 24 hr; significant concentrations differ per compound
[3] = system: NLRP3, ASC, Caspase-1, IL-1β, IL-18 mRNA in BV2 cells; assay: RT-qPCR of NLRP3 inflammasome and inflammatory cytokine mRNA; assay type: cell-based; conditions: for expression of NLRP3, ASC, Caspase-1, IL-1β, IL-18 mRNA vs 0 μM OPPs / ASC mRNA expression, MCC950 intervention vs OPP alone / IL-1β mRNA expression, MCC950 intervention vs OPP alone / NLRP3 mRNA expression, MCC950 pre-treatment vs OPP alone: BV2 cells; for expression of NLRP3, ASC, Caspase-1, IL-1β, IL-18 mRNA vs 0 μM OPPs: 500 μM OPP, P < 0.0001; for ASC mRNA expression, MCC950 intervention vs OPP alone / IL-1β mRNA expression, MCC950 intervention vs OPP alone / NLRP3 mRNA expression, MCC950 pre-treatment vs OPP alone: OPP 500 μM
[4] = system: IL-1β and IL-18 in extracellular medium of BV2 cells; assay: ELISA of IL-1β and IL-18 in culture supernatants; assay type: cell-based; conditions: P < 0.0001; for expression of IL-1β and IL-18 in the extracellular medium vs 0 μM OPPs: ELISA, BV2 cells, OPP 125, 250, 500 μM, 24 hr
BV2 cells [5] = assay: LDH-based cytotoxicity assay; assay type: cell-based; conditions: 125-1,000 μM, 24 hr, significant concentrations differ per compound
BV2 cells [6] = assay: IC50 of OPPs-induced cytotoxicity in BV2 cells; assay type: cell-based; conditions: for IC50: read-out: IC50 values of OPPs in BV2 cells
[7] = SPR, Biacore 8K, CM5 chip, 25°C

Chain of hNLRP3 LRR recombinant protein (Q96P20 742-991 limits assumed): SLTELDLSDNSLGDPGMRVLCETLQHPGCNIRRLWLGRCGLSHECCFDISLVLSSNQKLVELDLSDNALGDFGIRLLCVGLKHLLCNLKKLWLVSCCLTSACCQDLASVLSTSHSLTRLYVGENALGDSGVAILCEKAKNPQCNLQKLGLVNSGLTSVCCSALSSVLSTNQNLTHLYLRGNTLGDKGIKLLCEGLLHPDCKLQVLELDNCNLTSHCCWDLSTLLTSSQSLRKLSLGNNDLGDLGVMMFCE

Structure (SMILES) | affinity constant K D [1, 7] | cell viability of BV2 cells vs 0 μM OPPs (BV2 cells [2]) | Caspase-1 and IL-18 mRNA expressions, MCC950 intervention vs OPP alone [3] | expression of NLRP3, ASC, Caspase-1, IL-1β, IL-18 mRNA vs 0 μM OPPs [3] | ASC mRNA expression, MCC950 intervention vs OPP alone ([3]; MCC950 10 μM) | IL-1β mRNA expression, MCC950 intervention vs OPP alone ([3]; MCC950 10 μM) | NLRP3 mRNA expression, MCC950 pre-treatment vs OPP alone ([3]; MCC950 10 μM) | expression of IL-1β and IL-18 in the extracellular medium vs 0 μM OPPs [4] | cytotoxicity (LDH) in BV2 cells vs 0 μM OPPs (BV2 cells [5]) | IC50 (BV2 cells [6]; Mus musculus, BV-2, 24 h) | IC50 (BV2 cells [6]; BV2 cells, OPPs 24 hr) | Kd [1] | dissociation constant k d [1, 7] | kon [1] | association constant k a [1, 7] | activation of the NLRP3 inflammasome and associated inflammatory cytokine mRNA expression in OPPs-treated BV2 cells ([3]; MCC950 10 μM, OPPs 500 μM) | IL-1β and IL-18 expression in the extracellular medium of OPPs-treated BV2 cells ([4]; MCC950 10 μM vs OPPs treatment (125, 250, 500 μM)) | cytotoxicity induced by OPPs in BV2 cells (BV2 cells [6]; MCC950 10 μM intervention, from IC50 shift) | Kd ([1]; read-out: affinity constant K D, SPR, Biacore 8K, CM5 chip, 25°C)
COP(=S)(OC)Oc1ccc(SC)c(C)c1 [fenthion] | No obvious binding | significantly decreased | significantly decreased | significantly increased | decreased | decreased | significant decrease | significantly increased | significantly increased | 2160 µM |  |  |  |  |  |  |  |  | 
COP(=O)(OC)C(O)C(Cl)(Cl)Cl (stereo not shown) [dipterex] | No obvious binding | significantly decreased | significantly decreased | significantly increased | decreased | decreased | significant decrease | significantly increased | significantly increased |  | 410 µM |  |  |  |  |  |  |  | 
COP(=O)(OC)OC=C(Cl)Cl [dichlorvos] |  | significantly decreased | significantly decreased | significantly increased | decreased | decreased | significant decrease | significantly increased | significantly increased | 274 µM |  | 1460 µM | 0.00489 s⁻¹ | 3.35 M⁻¹ s⁻¹ |  |  |  |  | 
CCOP(=O)(OCC)Oc1ccc([N+](=O)[O-])cc1 [paraoxon] |  | significantly decreased | significantly decreased | significantly increased | decreased | decreased | significant decrease | significantly increased | significantly increased |  | 551 µM |  | 0.00461 s⁻¹ |  | 14.2 M⁻¹ s⁻¹ |  |  |  | 
CC(C)(O)c1coc(S(=O)(=O)NC(=O)Nc2c3c(cc4c2CCC4)CCC3)c1 [MCC950, reference compound] |  |  |  |  |  |  |  |  |  |  |  |  |  |  |  | reduced | significantly reduced | markedly decrease | 
COP(=O)(OC)OC(Br)C(Cl)(Cl)Br (stereo not shown) [dibrom] |  |  | significantly decreased | significantly increased | decreased | decreased | significant decrease | significantly increased |  |  | 585 µM |  | 0.206 s⁻¹ |  | 76.5 M⁻¹ s⁻¹ |  |  |  | 2690 µM
CNC(=O)CSP(=S)(OC)OC [dimethoate] |  | significantly decreased | significantly decreased | significantly increased | decreased | decreased | significant decrease | significantly increased | significantly increased |  |  | 89.8 µM | 0.00529 s⁻¹ | 58.9 M⁻¹ s⁻¹ |  |  |  |  | 
